Data on 2 compounds can be found in paper PMC4421842 (Nature Communications, 2015).

≈ marks a conversion by molar mass, not a printed value. Entries after “also recorded” stand apart in the source; their conditions may differ. Bounds are passed on as bounds.

In one data set the target is T1, human topoisomerase II (Homo sapiens, UniProt P11388).
T1 construct: purchased Inspiralis
Description: Human topoisomerase decatenation assay. In kind it is biochemical. To be noted: decatenation assay. The protocol:
The decatenation assay was performed with the Human Topo II Decatenation Assay Kit (Inspiralis), according to the manufacturer's instructions, with minor modifications. First, a master mix was made containing 2 μl of 10 × assay buffer (500 mM Tris-HCl pH 7.5, 1250, mM NaCl, 100 mM MgCl2, 50 mM DTT, 1,000 μg ml^−1 albumin), 0.67 μl of 30 mM ATP, 1.34 μl of 0.1 ng μl^−1 kDNA, and 14.3 μl of nuclease-free water per sample is made. DMSO or 30 × compound is added to a 0.5-ml Eppendorf tube (0.67 μl per tube). The master mix is then added to each tube (18.3 μl per tube). Finally, 1 U of human topoisomerase (1 μl of 1 U μl^−1 stock) is added to each tube for a final volume of 20 μl. The tubes are then incubated at 37 °C for 30 min. Reactions are stopped by the addition of 20 μl of 24:1 chloroform:isoamyl alcohol and 20 μl of stop dye (40% sucrose, 1 mM EDTA, 100 mM Tris-HCl pH 7.5, 0.5 μg ml^−1 bromophenol blue). Samples were run on 1% agarose gels containing 0.5 μg ml^−1 ethidium bromide for 1 h at 110 V or until the dye front was approximately halfway down the gel. Gels were imaged on a Molecular Imager Gel Doc XR+ (Biorad).

The test system of a further data set is Herring Sperm DNA. Description: Intercalation assay (ethidium bromide displacement). The format is binding. The protocol:
Intercalation assays were performed as previously described. The ability of DNM-2 to intercalate into DNA was measured by an ethidium bromide displacement assay. Herring Sperm DNA (34 μg ml^−1 final) was premixed with buffer containing ethidium bromide (50 mM Tris base, 100 mM NaCl, 1 mM EDTA, 5 μM EtBr pH 7.5). Ninety-five microlitres of this solution was added to a 96-well plate containing 5 μl of DMSO solutions of compounds. […] Doxorubicin was used as a positive control. The reactions were allowed to incubate for 30 min. Fluorescence was then read on a Gemini microplate reader (Molecular Devices, excitation=545 nm, emission=595 nm).

A short description of data set [1]: In-vivo toxicity assessment, once daily for 10 days. The arrangement: species or system BALB/c mice. Particulars: mice. The protocol: Toxicity was assessed as previously described. Specifically, heparinized whole blood was collected for assessment of total white blood cells, neutrophils, lymphocytes, haematocrit, platelets, creatinine, blood urea, nitrogen, albumin, alanine aminotransferase, alkaline phosphatase and total bilirubin. Mice were euthanized by overdosing with ketamine/xylazine and the heart, lung, kidney, liver, spleen, gastrointestinal tract and the brain were collected for histopathology. Tissue samples were fixed 24 h in 10% neutral buffered formalin, processed and paraffin embedded, sectioned (5 μm thickness) and stained with haematoxylin and eosin. All slides were systematically evaluated by a single board-certified veterinary anatomic pathologist (SL) for evidence of acute or chronic inflammation and toxicity. All lesions were characterized, recorded and scored for severity (minimal=1, mild=2, moderate=3, marked=4, and severe=5).

Another data set deals with FQR MRSA (NRS3). Description: In-vivo efficacy, mouse sepsis model. To be noted: 50 mg kg^−1 oral gavage once daily for 10 days; n=15; Kaplan–Meier, log rank survival test.
The subject of data set [2] is FQR S. aureus (NRS3, FQR). Kind of data set: MIC, microdilution broth assay, FQR MRSA NRS3. In kind it is cell-based. To be noted: NRS3, S84L GyrA and S80F ParC, three independent replicates.
The target in a further data set is T2, S83L E. coli DNA gyrase (Escherichia coli, UniProt P0AES4+P0AES6, S83L).
T2 construct: His tag (pTRCHisA vector; purified on Ni-NTA); made in house; host or cells: E. coli One Shot BL21 Star (DE3)
The format is biochemical. To be noted: DNA cleavage assay.

The next data set deals with human erythrocytes. Kind of data set: In-vitro haemolysis assay. Particulars: human red blood cells, 2 h at 37°C, 160 µg mL-1 or highest concentration solubility allowed. In kind it is cell-based. The protocol: Haemolysis assays were performed as previously described. Briefly, assays were performed using human erythrocytes within 3 days of receipt. One millilitre of human blood purchased from Bioreclamation, Inc. (Hicksville, NY) was centrifuged (10,000 × g, 2 min). The pellet was washed three times with sterile saline (0.9% NaCl in water) by repeated gentle suspension and centrifugation. The pellet was resuspended in RBC buffer (10 mM Na2HPO4, 150 mM NaCl, 1 mM MgCl2 pH 7.4). To evaluate haemolytic activity of DNM and derivatives, 1 μl either 3.2 mg ml^−1 DMSO stock (or the most concentrated stock of the compound available if not soluble at 3.2 mg ml^−1 in DMSO) was transferred to 0.5 ml Eppendorf tubes containing 19 μl RBC buffer. Negative control tubes contained 1 μl DMSO and 19 μl RBC buffer, and positive control tubes contained 1 μl DMSO and 19 μl sterile deionized water. A suspension of washed erythrocytes (10 μl) was added to each tubes and samples were incubated at 37 °C for 2 h. Samples were centrifuged at 10,000 × g for 2 min and the supernatants from each sample (25 μl) were transferred to a clear, sterile 384-well plate. The absorbance of these supernatants was measured at 540 nm using a SpectraMaxPlus384 absorbance plate reader (Molecular Devices). Per cent haemolysis of each sample was calculated relative to the average absorbance values measured for positive controls.

Data set [3] has as its system normal (that is, non-cancerous) cell lines. The arrangement: method as in PMID 10993200. To be noted: previously published data; cited from earlier work.
[4] abbreviates: 50 mg kg-1 oral gavage once daily for 10 days.
[5] abbreviates: 50 mg kg^−1 oral gavage once daily for 10 days.

For the compound `CCn1c(=O)cc(C)c2cc3c(C)cc(=O)n4c3c(c21)OC4` [DNM-2], the “concentration inhibiting human topoisomerase II” value on human topoisomerase II was greater than 30 µM. Moreover, the “concentration with significant DNA intercalation” value in the data set on Herring Sperm DNA is greater than 30 µM. Moreover, in data set [1] (setting [4]), the ALP was determined as 60 ± 10 U/L, the ALT amounted to 36 ± 1 U/L, the Albumin is 3.2 ± 0.1 g/dL and the “BUN (Urea)” value is recorded as 32.0 ± 0.4 mg/dL. For the same compound, in data set [1] (setting [4]), the Creatine is given as 0.2 ± 0.0 mg/dL, the Globulin was found to be 2.62 ± 0.05 g/dL, the Hematocrit is on record as 40 ± 1% and the Hemoglobin is reported as 14.2 ± 0.3 g/dL. For the same compound, in data set [1] (setting [4]), the Lymphocyte is 81 ± 3 % of WBC, the “Mean Cell Volume” value worked out at 47.3 ± 0.4 fL, the Neutrophil is 18 ± 3 % of WBC and the RBC is reported as 8.5 ± 0.2 X106/µL. In data set [1] (setting [4]), this compound showed a WBC of 3800 ± 300 cells/µL. Also, the Platelet in data set [1] (50 mg kg-1 oral gavage once daily for 10 days, counts low because of platelet clumps) is listed as 60,000 ± 10,000 cells/µL. In data set [1] (50 mg kg-1 oral gavage once daily for 10 days, increased also in vehicle due to hemolysis during blood collection), the “Total Bilirubin” value is given as 0.7 ± 0.1 mg/dL. For the same compound, in data set [1] (setting [5]), the “adipocytes and triglyceride levels” value was “Increased vacuolation of white and brown adipocytes with a minimal increase in triglyceride levels”; the “haematological and non-haematological toxicity markers” value is listed as “No clinically significant evidence for myelosuppression, renal injury or hepatic toxicity was identified”; the “histopathology of kidney, brain, lung, liver, spleen, heart and stomach” value was “did not reveal any evidence of toxicity”; the “histopathology of small intestine sections” value is given as “mild intestinal dilation associated with villi atrophy”. The “survival of mice infected with MRSA (NRS3, FQR)” value in the data set with FQR MRSA (NRS3) is “***P<0.005 versus vehicle and CIP; also recorded: significant survival difference relative to both CIP and vehicle-treated control; also recorded: effective in treating mice infected with MRSA”.

Turning to `Cc1cc(=O)n(C)c2c3c4c(cc12)c(C)cc(=O)n4CO3` [DNM, deoxynybomycin], in data set [2], the “MIC against S. aureus NRS3” value came out at 0.03 µg/mL (≈ 0.106 µM). Moreover, in data set [2] (Staphylococcus aureus, read-out: MIC against S. aureus NRS3), the minimum inhibitory concentration (MIC) came out at 0.03 µg/mL (≈ 0.106 µM). In addition, the “concentration giving significant buildup of OC DNA (P<0.05)” value on S83L E. coli DNA gyrase amounted to 0.17 µM. Further, the haemolysis entry in the data set on human erythrocytes is “none of these compounds induce haemolysis”. The “toxicity to normal (non-cancerous) cell lines” value in data set [3] is “non-toxic”.
